In PubChem BioAssay AID1963444 (Molecular Pharmacology Branch, DTP, NCI, 2024):

System: HSSY-II complex spheroid growth, percent test/control
Assay: Anticancer human tumor HSSY-II cell line growth inhibition [Asc];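 also: spheroids exposed to drug for 7 days before reading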
Details: for IC50: curve of first compound; for viability, T/C: stronger effect = lower value
Protocol: Multicellular complex tumor spheroid response to apoptosis pathway targeting inhibitors Alrizomadlin, Pelcitoclax, and Dasminapant in combination with a variety of drugs and investigational agents in selected tumor cell lines
The MDM2 inhibitor alrizomadlin, the Bcl-2/Bcl-xL inhibitor pelcitoclax, and the IAPs inhibitor dasminapant were evaluated both individually and in combination with standard of care and investigational anticancer small molecules within a complex spheroid model of solid tumors. . Complex spheroids include a stromal component modeled by human endothelial cells (HUVEC) and fibroblasts modeled by human mesenchymal stem cells (MSCs). The concentration ranges selected for each drug and investigational agent were based upon clinically achievable concentrations if the clinical Cmax of the agent was known.
Compounds. The drugs and investigational agents: alrizomadlin (APG-115; NSC831270), pelcitoclax (APG-1252; NSC835773), dasminapant (APG-1387;NSC834197), TAK-243 (NSC785004), copanlisib (NSC809693), olaparib (NSC753686), talazoparib (NSC767125), cobimetinib (NSC 768068), eltanexor (KPT-8602, NSC 794443), abemaciclib (NSC 768073), sotorasib (NSC818433), adagrasib (NSC 831453), MRTX-1133 (NSC 836407), Iadademestat (ORY1001, NSC 806812), and RMC-4630 (NSC839698), were obtained from the NCI Developmental Therapeutics Program Chemical Repository. The FDA-approved anticancer drug set is available from the Developmental Therapeutics Program at https://dtp.cancer.gov/organization/dscb/obtaining/available plates.htm. […] The stock solutions were prepared in dimethyl sulfoxide (DMSO, Sigma-Aldrich, St. Louis, MO, cat. D2650) at 800-fold the tested concentration and stored at -70 degrees C prior to their use. All drugs and investigational agents were tested over a range starting from a high concentration at or near the clinical Cmax and decreasing in half-log increments. If the clinical Cmax for an agent had not been determined, the highest concentration tested was 10 microM.
The patient-derived cancer (PDC) cell lines include five colon adenocarcinomas: 186277-243-T-J2-PDC, 616215-338-R-J1-PDC, 439559-082-T-J2-PDC, 463943-066-T-J2-PDC, and 519858-162-T-J1-PDC; three pancreatic carcinomas: 323965-272-R-J2-PDC, 521955-158-R6-J3-PDC, and 521955-158-R2-J5-PDC; two uterine sarcomas: 327498-152-R-J2-PDC and 993429-296-R-J1-PDC; two rhabdomyosarcomas: 755483-174-R-J1-PDC and 772245-204-R-J1-PDC; two soft tissue sarcomas: 126254-015-R-J1-PDC and 494315-158-R-J1-PDC; two malignant fibrous histiocytomas: 317291-083-R-J1-PDC and 596521-263-R-J1-PDC; two breast carcinomas: 171881-019-R-J1-PDC and 885512-296-R-J2-PDC; and one ovarian carcinoma: 6556581-035-R-J-PDC were obtained from the NCI PDMR, (https://pdmr.cancer.gov). The established cell lines HSSY-2 synovial sarcoma (RRID:CVCL 8719), SYO-1 synovial sarcoma (RRID:CVCL_7146), MPNST malignant peripheral neural sheath tumor were obtained from the Sloan Kettering Institute. The following established cell lines were purchased from the American Type Culture Collection (ATCC, Manassas, VA), Sor the received from the NCI repository:, PANC-1 pancreatic carcinoma (CRL-1469, RRID:CVCL_0480), OVCAR-5 ovarian carcinoma (RRID:CVCL_1628), OVCAR-8 ovarian carcinoma (RRID:CVCL_1629), , MCF-7 breast carcinoma (CRL-12584, RRID:CVCL_0031), MDA-MB-231 breast carcinoma (CRL-12532, RRID:CVCL_0062), NCI-H1876 small cell lung carcinoma (CRL-5902, RRID:CVCL_1503), NCI-H510A small cell lung carcinoma (HTB-184, RRID:CVCL_1565), NCI-H1417 (CRL-5869, RRID:CVCL_1469), and NCI-H196 small cell lung carcinoma (CRL-5823, RRID:CVCL_1509). Dr. Peter Houghton (Greehey Children's Cancer Research Institute, University of Texas Health Science Center, San Antonio, TX) provided Rh-18 rhabdomyosarcoma (RRID:CVCL_1659). Pooled donor human umbilical vein endothelial cells (HUVEC, Lonza, cat. CC-2519) and human mesenchymal stem cells (hMSC, Lonza, cat. PT-2501) were purchased from Lonza (Walkersville, MD).
Cell Culture. […]

[1] = second compound 0.03 µM, first compound 0.00316 µM
[2] = second compound 0.03 µM, first compound 0.01 µM
[3] = second compound 0.03 µM, first compound 0.0316 µM
[4] = second compound 0.03 µM, first compound 0.1 µM
[5] = second compound 0.0949 µM, first compound 0.00316 µM
[6] = second compound 0.0949 µM, first compound 0.01 µM
[7] = second compound 0.0949 µM, first compound 0.0316 µM
[8] = second compound 0.0949 µM, first compound 0.1 µM
[9] = second compound 0.3 µM, first compound 0.00316 µM
[10] = second compound 0.3 µM, first compound 0.01 µM
[11] = second compound 0.3 µM, first compound 0.0316 µM
[12] = second compound 0.3 µM, first compound 0.1 µM
[13] = second compound 0.949 µM, first compound 0.00316 µM
[14] = second compound 0.949 µM, first compound 0.01 µM
[15] = second compound 0.949 µM, first compound 0.0316 µM
[16] = second compound 0.949 µM, first compound 0.1 µM
[17] = second compound 3 µM, first compound 0.00316 µM
[18] = second compound 3 µM, first compound 0.01 µM
[19] = second compound 3 µM, first compound 0.0316 µM
[20] = second compound 3 µM, first compound 0.1 µM
[21] = second compound 0.03 µM, first compound 0.316 µM
[22] = second compound 0.03 µM, first compound 1 µM
[23] = second compound 0.0949 µM, first compound 0.316 µM
[24] = second compound 0.0949 µM, first compound 1 µM
[25] = second compound 0.3 µM, first compound 0.316 µM
[26] = second compound 0.3 µM, first compound 1 µM
[27] = second compound 0.949 µM, first compound 0.316 µM
[28] = second compound 0.949 µM, first compound 1 µM
[29] = second compound 3 µM, first compound 0.316 µM
[30] = second compound 3 µM, first compound 1 µM

IC50 (second compound 0.03 µM) [nM] | IC50 (second compound 0.0949 µM) [nM] | IC50 (second compound 0.3 µM) [nM] | IC50 (second compound 0.949 µM) [nM] | IC50 (second compound 3 µM) [nM] | Compound | viability, T/C [1] [%] | viability, T/C [2] [%] | viability, T/C [3] [%] | viability, T/C [4] [%] | viability, T/C [5] [%] | viability, T/C [6] [%] | viability, T/C [7] [%] | viability, T/C [8] [%] | viability, T/C [9] [%] | viability, T/C [11] [%] | viability, T/C [12] [%] | viability, T/C [15] [%] | viability, T/C [16] [%] | viability, T/C [19] [%] | viability, T/C [20] [%] | also measured
10.7 | 2.01 | < 0.316 | < 0.316 | < 0.316 | Cn1ncnc1[C@H]1c2n[nH]c(=O)c3cc(F)cc(c23)N[C@@H]1c1ccc(F)cc1 + CCN1C(C(=O)NC23CCC(C(=O)O)(CC2)CC3)C(c2cccc(Cl)c2F)C2(C(=O)Nc3cc(Cl)ccc32)C12CCCCC2 | 68.1 | 52.8 | 31.4 | 19.6 | 47.1 | 31 | 15.4 | 10.2 | 18.2 | 6.69 | 5.88 | 6.11 | 6.09 | 1.88 | 4.41 | viability, T/C (second compound 0.03 µM, first compound 0.000316 µM): 91.9%; viability, T/C (second compound 0.03 µM, first compound 0.001 µM): 89.6%; viability, T/C (second compound 0.0949 µM, first compound 0.000316 µM): 61.4%; viability, T/C (second compound 0.0949 µM, first compound 0.001 µM): 53.6%; viability, T/C (second compound 0.3 µM, first compound 0.000316 µM): 28.5%; viability, T/C (second compound 0.3 µM, first compound 0.001 µM): 28.6%; viability, T/C [10]: 10.4%; viability, T/C (second compound 0.949 µM, first compound 0.000316 µM): 8.57%; viability, T/C (second compound 0.949 µM, first compound 0.001 µM): 7.9%; viability, T/C [13]: 7.26%; viability, T/C [14]: 5.4%; viability, T/C (second compound 3 µM, first compound 0.000316 µM): 2.41%; viability, T/C (second compound 3 µM, first compound 0.001 µM): 2.9%; viability, T/C [17]: 4.02%; viability, T/C [18]: 2.59%
1760 | 196 | < 31.6 | < 31.6 | < 31.6 | O=C(c1cc(Cc2n[nH]c(=O)c3ccccc23)ccc1F)N1CCN(C(=O)C2CC2)CC1 + CCN1C(C(=O)NC23CCC(C(=O)O)(CC2)CC3)C(c2cccc(Cl)c2F)C2(C(=O)Nc3cc(Cl)ccc32)C12CCCCC2 |  |  | 81.5 | 75.1 |  |  | 52.9 | 52.4 |  | 23.5 | 20.9 | 6.91 | 7.91 | 3.25 | 2.79 | viability, T/C [21]: 84.5%; viability, T/C [22]: 63.6%; viability, T/C (second compound 0.03 µM, first compound 3.16 µM): 34.5%; viability, T/C (second compound 0.03 µM, first compound 10 µM): 14.1%; viability, T/C [23]: 47.2%; viability, T/C [24]: 38.5%; viability, T/C (second compound 0.0949 µM, first compound 3.16 µM): 18.7%; viability, T/C (second compound 0.0949 µM, first compound 10 µM): 9.39%; viability, T/C [25]: 18.3%; viability, T/C [26]: 15.5%; viability, T/C (second compound 0.3 µM, first compound 3.16 µM): 9.8%; viability, T/C (second compound 0.3 µM, first compound 10 µM): 6.14%; viability, T/C [27]: 6.69%; viability, T/C [28]: 7.17%; viability, T/C (second compound 0.949 µM, first compound 3.16 µM): 6.79%; viability, T/C (second compound 0.949 µM, first compound 10 µM): 5.66%; viability, T/C [29]: 3.26%; viability, T/C [30]: 2.73%; viability, T/C (second compound 3 µM, first compound 3.16 µM): 2.56%; viability, T/C (second compound 3 µM, first compound 10 µM): 3.28%
485 | 186 | < 3.16 | < 3.16 | < 3.16 | O=C(c1ccc(F)c(F)c1Nc1ccc(I)cc1F)N1CC(O)([C@@H]2CCCCN2)C1 + CCN1C(C(=O)NC23CCC(C(=O)O)(CC2)CC3)C(c2cccc(Cl)c2F)C2(C(=O)Nc3cc(Cl)ccc32)C12CCCCC2 | 101 | 96.6 | 77.7 | 98.5 | 66.7 | 70.8 | 67.9 | 59.9 | 30.3 | 34.2 | 28.1 | 7.24 | 6.73 | 2.09 | 2.02 | viability, T/C [21]: 66.7%; viability, T/C [22]: 21.7%; viability, T/C [23]: 41.2%; viability, T/C [24]: 15.8%; viability, T/C [10]: 25.7%; viability, T/C [25]: 24.2%; viability, T/C [26]: 7.55%; viability, T/C [13]: 6.94%; viability, T/C [14]: 9.74%; viability, T/C [27]: 5.75%; viability, T/C [28]: 2.34%; viability, T/C [17]: 2.22%; viability, T/C [18]: 2.17%; viability, T/C [29]: 1.16%; viability, T/C [30]: 0.62%
